Assay results published in US11945786B2, “Compounds, devices, and uses thereof” (SIGILON THERAPEUTICS, INC., priority 2016, dated 2024).

Tested on: Macrophage cell lines
Assay: In vitro macrophage adhesion assay (Example 8)
Assay type: cell-based
Settings: compound conjugated to NHS-activated 96 well plate; 50000 cells per well, 37 degrees Celsius, one hour; averaged across eight wells; normalized PEG750=0, Fibronectin=100
Protocol: Exemplary compounds of the invention were prepared at a concentration of 0.1M in a 0.1M bicarbonate buffer (pH 8.2) containing 25% v/v DMSO. Control solutions of 0.1M PEG750-amine and 0.01% fibronectin were prepared in 0.1M bicarbonate buffer (pH 8.2).
Each small molecule amine solution (100 μL) was pipetted into eight wells of an NHS-activated 96 well plate and incubated 2 hours at room temperature. Each plate consisted of two lanes spiked with the two control solutions and ten lanes spiked with test molecule solutions. The test wells were rinsed once with 200 μL 0.1M bicarbonate buffer (pH 8.2) containing 25% v/v DMSO followed by three washes with 200 μL Hyclone™ water. The control wells were rinsed with 0.1M bicarbonate buffer (pH 8.2) followed by three 200 μL Hyclone™ water washes. Plates were dried at room temperature in a sterile hood and stored at 4-8° C. until use.
Macrophage cell lines were plated onto 96 well plates, 50000 cells per well, and incubated at 37 degrees Celsius for one hour. Plates were then placed at a 45-degree angle and washed by applying fluid shear 5 times. Non-adherent and adherent cells were then separated and treated with a Cell titer-glo kit to quantify the number of live cells. Live cells were detected using luminescence-based plate reader measurements. The resulting cell adhesion values for each small molecule amine was averaged across the eight wells and standard deviations calculated. The average cell adhesion value for each small molecule was normalized relative to the averages for the two controls on each plate: PEG750=0, Fibronectin (FN)=100. Small molecule normalized value=(SM-PEG750)/(FN-PEG750). Results are expressed as a percentage of cells adhered on the plates. % Percent adherent cells=(Luminescence of adhered cells)/(Luminescence of adhered+non-adhered cells). In this table, “A” represents a cell adhesion value of <0% to about 10%; “B” represents a cell adhesion value of 10% to about 50%; and “C” represents a cell adhesion value of 50% to 100%.

| Compound | cell adhesion value (percentage of cells adhered on the plates) |
| --- | --- |
| NCCOCCOCCOCCn1cc(CN2CCS(=O)(=O)CC2)nn1 [Compound 3037, 4-((1-(2-(2-(2-(2-aminoethoxy)ethoxy)ethoxy)ethyl)-1H-1,2,3-triazol-4-yl)methyl)thiomorpholine 1,1-dioxide] | A (a cell adhesion value of <0% to about 10%) |
| C=CC(=O)NCc1ccc(-n2cc(COC3CCCCO3)nn2)cc1 (stereo not drawn) [Compound 3040, N-(4-(4-(((tetrahydro-2H-pyran-2-yl)oxy)methyl)-1H-1,2,3-triazol-1-yl)benzyl)acrylamide] | C (a cell adhesion value of 50% to 100%) |
| Fibronectin [reference compound] | C (a cell adhesion value of 50% to 100%) |
